Laboratory results taken from paper PMC3809587, “Structure and function of the Smoothened extracellular domain in vertebrate Hedgehog signaling” (eLife, 2013).
“Also recorded” adds a separate entry of the source. Where two headings read alike, the source gives them in different places. Each block holds one compound with its values, some of them ahead of it.

Columns and labels:
mSmo CRD-Fc = biological target: T1, mSmo CRD-Fc (Mus musculus, UniProt P56726); assay: Ligand affinity chromatography: mSmo CRD-Fc binding to 20(S)-OHC beads; conditions: free compound added as competitor
T1 construct: made in house; host or cells: 293F suspension cells (secreted)
T1 sequence (P56726 33-183): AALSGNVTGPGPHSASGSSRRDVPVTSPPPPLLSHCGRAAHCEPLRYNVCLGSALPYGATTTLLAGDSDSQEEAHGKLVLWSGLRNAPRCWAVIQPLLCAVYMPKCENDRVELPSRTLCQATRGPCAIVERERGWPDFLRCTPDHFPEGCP
Experimental: After binding was allowed to proceed for 12 hr at 4°C, the resin was washed and captured protein was eluted as described above. The presence of mSmo CRD-Fc was measured by an anti-human HRP-coupled antibody (1:20,000) or anti-human IR800-coupled antibody (1:10,000; for all quantitation, detected by LiCor Odyssey). The presence of zSmo ectodomain protein was measured by colloidal Coomassie staining (GelCode Blue, Pierce/Thermo Scientific). […]

full-length mSmo = biological target: T2, full-length mSmo (Mus musculus, UniProt P56726); assay: Bodipy-cyclopamine binding to Smo-expressing cells by FACS
T2 construct: expressed in transfected cells

[1] = system: endogenous mSmo in cilia of NIH 3T3 cells; parameters: method as in Rohatgi et al., 2009; conditions: ref Rohatgi et al., 2009; cited from earlier work
[2] = system: Hh reporter (8xGli-responsive promoter); conditions: cited from earlier work
YFP-mSmo = biological target: T3, YFP-mSmo (Mus musculus, UniProt P56726); assay: Gli1 and Gli3R immunoblot in Smo−/−:YFP-mSmo cells; type: cell-based; conditions: SAG 100 nM, 20(S)-OHC 10 μM
T3 construct: Smo^−/− cells stably expressing full-length (FL) YFP-mSmo or ΔCRD-YFP-mSmo were treated with Shh, SAG (100 nM) or 20(S)-OHC (10 μM); expressed in transfected cells
Experimental: Cultured cells stably expressing YFP-mSmo, ΔCRD-YFP-mSmo, or ΔC-YFP-mSmo were scraped into ice-cold PBS containing SigmaFast Protease inhibitor cocktail (Sigma) and collected as a pellet by centrifugation (1000×g, 10 min, 4°C). Cells were lysed (1 hr, 4°C) by agitation in modified RIPA buffer (50 mM sodium-Tris pH 7.4, 150 mM sodium chloride, 2% NP-40, 0.5% deoxycholate, 0.1% sodium-dodecyl sulfate [SDS], 1 mM dithiothreitol and the SigmaFast Protease inhibitor cocktail). After clarification (20,000×g, 45 min, 4°C), the protein concentration of each lysate was measured using the bicinchoninic acid assay (BCA, Pierce/Thermo Scientific, Rockford, IL). Lysate aliquots containing equal amount of total protein were fractionated on an 8% SDS-PAGE gel and transferred to a nitrocellulose membrane for immunoblotting with anti-Gli1 antibody (#L42B10, 1:500; Cell Signaling, Denvers, MA), anti-GFP antibody (1:5000; Novus, Littleton, CO), anti-Gli3 antibody (AF3690 1:200; R&D, Minneapolis, MN) and anti-p38 antibody (ab31828, 1:2000; Abcam, Cambridge, MA). In Figures 1–4, vertical dashed black lines represent non-contiguous lanes from the same immunoblot juxtaposed for clarity.

ΔCRD-YFP-mSmo = biological target: T4, ΔCRD-YFP-mSmo (Mus musculus, UniProt P56726, DEL68-184); assay: Hh signaling by ΔCRD-YFP-mSmo in Smo−/− cells (immunoblot, Hh reporter); type: cell-based; conditions: SAG 100 nM, 20(S)-OHC 10 μM
T4 construct: All mSmo mutants were made using Quickchange or PCR methods in the context of a previously described construct encoding full-length mouse Smo (UniProt P56726); expressed in transfected cells

Smo = conditions: ref Wang et al., 2012; cited from earlier work
[3] = system: Hh reporter (8xGli-responsive promoter); assay: Luciferase-based Hh reporter assay; type: cell-based, mouse; conditions: in the absence of Shh
Experimental: For reporter assays in NIH 3T3 cells, a 10-cm plate of cells was transfected with 8 μg of a 4:1 wt/wt ratio of firefly luciferase reporter driven by an 8xGli-responsive promoter ([Sasaki et al., 1997]) and a Renilla luciferase reporter driven by a constitutive TK promoter (Promega, Madison, WI). The next day, transfected cells were seeded into a 96-well plate, grown to confluence, and treated overnight with drugs diluted in media containing 0.5% fetal bovine serum (FBS). For reporter assays in Smo^−/− cells, 25,000 cells per well were seeded in a 24-well plate 24 hr prior to transfection. […] Activity of both reporters was measured using the Dual-Luciferase Reporter kit (Promega) and read on a Synergy H1 Hybrid Multi-Mode Microplate Reader (BioTek, Winooski, VT). […]
For Hh reporter assays, each point is reported as the mean ± standard deviation (SD) derived from triplicates. […] Relative luciferase activity was calculated by dividing Gli luciferase by Renilla luciferase luminescence. Fold-change in reporter activity was calculated by dividing each replicate by the mean reporter activity of the vehicle-treated control. Normalized (% of max) Hh reporter activity was calculated by setting the maximum value of a set to 100% and zero to 0% using the ‘normalize’ function of GraphPad Prism. […]

mSmo D477H = biological target: T5, mSmo D477H (Mus musculus, UniProt P56726, D477H); assay: Hh reporter assay in Smo−/− cells transfected with mSmo D477H; type: cell-based; conditions: Shh, 25 µM, 48 hr
T5 construct: All mSmo mutants were made using Quickchange or PCR methods in the context of a previously described construct encoding full-length mouse Smo (UniProt P56726); expressed in transfected cells; host or cells: Smo-/- mouse embryonic fibroblasts (transient)
Experimental: (§1) For reporter assays in NIH 3T3 cells, a 10-cm plate of cells was transfected with 8 μg of a 4:1 wt/wt ratio of firefly luciferase reporter driven by an 8xGli-responsive promoter ([Sasaki et al., 1997]) and a Renilla luciferase reporter driven by a constitutive TK promoter (Promega, Madison, WI). The next day, transfected cells were seeded into a 96-well plate, grown to confluence, and treated overnight with drugs diluted in media containing 0.5% fetal bovine serum (FBS). For reporter assays in Smo^−/− cells, 25,000 cells per well were seeded in a 24-well plate 24 hr prior to transfection. The next day, after a media replacement step, each well was transfected with 1 ng Smo construct and 500 ng of the reporter mix described above, using Xtreme Gene HP (Roche, Mannheim, Germany). After overnight transfection, the media were once again changed to fresh media. Cells were grown to confluence and treated with drugs diluted in media with 0.5% FBS for 48 hr. Activity of both reporters was measured using the Dual-Luciferase Reporter kit (Promega) and read on a Synergy H1 Hybrid Multi-Mode Microplate Reader (BioTek, Winooski, VT). The Gli luciferase to Renilla luciferase ratio is reported as ‘Hedgehog reporter activity’. Each experiment, which included three technical replicates, was repeated at least three times.

mSmoM2 = biological target: T6, mSmoM2 (Mus musculus, UniProt P56726, W539L); assay: Hh reporter assay in NIH 3T3 cells transfected with mSmoM2; type: cell-based; conditions: 10 µM each, 12 hr
T6 construct: All mSmo mutants were made using Quickchange or PCR methods in the context of a previously described construct encoding full-length mouse Smo (UniProt P56726); expressed in transfected cells; host or cells: NIH 3T3 cells
Experimental: as §1

T2 sequence (P56726 33-793): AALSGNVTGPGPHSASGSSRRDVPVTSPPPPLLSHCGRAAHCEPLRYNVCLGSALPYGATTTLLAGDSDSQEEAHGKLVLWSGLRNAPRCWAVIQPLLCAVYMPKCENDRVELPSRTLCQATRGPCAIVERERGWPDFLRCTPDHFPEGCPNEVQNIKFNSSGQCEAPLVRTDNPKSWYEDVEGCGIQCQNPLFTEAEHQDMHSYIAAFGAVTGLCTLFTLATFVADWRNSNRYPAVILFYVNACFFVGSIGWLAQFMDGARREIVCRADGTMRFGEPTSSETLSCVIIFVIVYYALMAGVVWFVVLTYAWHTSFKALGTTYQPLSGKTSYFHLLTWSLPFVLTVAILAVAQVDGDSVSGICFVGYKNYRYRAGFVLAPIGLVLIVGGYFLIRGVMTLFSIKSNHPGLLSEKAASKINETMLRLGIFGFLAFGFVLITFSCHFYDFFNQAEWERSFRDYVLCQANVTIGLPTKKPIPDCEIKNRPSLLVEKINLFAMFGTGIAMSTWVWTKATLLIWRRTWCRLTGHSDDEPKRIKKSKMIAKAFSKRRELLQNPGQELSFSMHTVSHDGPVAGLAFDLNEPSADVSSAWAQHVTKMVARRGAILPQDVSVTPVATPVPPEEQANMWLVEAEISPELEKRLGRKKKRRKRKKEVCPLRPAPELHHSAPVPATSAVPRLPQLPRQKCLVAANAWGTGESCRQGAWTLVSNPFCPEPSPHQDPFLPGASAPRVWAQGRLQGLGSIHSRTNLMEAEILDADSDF
T3 sequence (P56726 33-793): as above
T6 sequence (P56726 33-793 W539L): as the sequence (P56726 33-793) above, with W507L counted along it
T5 sequence (P56726 33-793 D477H): as the sequence (P56726 33-793) above, with D445H counted along it
T4 sequence (P56726 with tags, fused parts or gaps DEL68-184): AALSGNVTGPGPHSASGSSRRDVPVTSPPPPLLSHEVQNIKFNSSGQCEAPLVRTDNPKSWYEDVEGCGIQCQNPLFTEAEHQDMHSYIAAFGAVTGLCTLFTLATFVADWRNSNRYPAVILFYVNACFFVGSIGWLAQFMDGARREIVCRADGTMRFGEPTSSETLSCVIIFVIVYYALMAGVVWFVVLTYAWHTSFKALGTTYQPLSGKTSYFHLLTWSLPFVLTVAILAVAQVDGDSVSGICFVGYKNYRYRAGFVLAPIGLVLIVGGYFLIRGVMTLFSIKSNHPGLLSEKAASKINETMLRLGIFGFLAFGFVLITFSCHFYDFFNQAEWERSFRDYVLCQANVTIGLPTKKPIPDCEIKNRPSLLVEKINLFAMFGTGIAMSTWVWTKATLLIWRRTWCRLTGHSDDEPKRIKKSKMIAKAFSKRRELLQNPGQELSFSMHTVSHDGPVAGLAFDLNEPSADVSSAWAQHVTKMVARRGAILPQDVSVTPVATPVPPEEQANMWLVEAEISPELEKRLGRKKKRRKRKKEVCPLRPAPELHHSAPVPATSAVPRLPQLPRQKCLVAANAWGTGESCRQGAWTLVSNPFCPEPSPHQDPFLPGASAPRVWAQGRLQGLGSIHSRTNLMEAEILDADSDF

- inhibition of binding of mSmo CRD-Fc to 20(S)-OHC beads (mSmo CRD-Fc): failed to inhibit the binding
- competition of bodipy-cyclopamine binding (full-length mSmo): can be competed
Compound: Cc1nn(-c2ccccc2)c(C)c1/C=N/N1CCN(Cc2ccccc2)CC1 [SANT-1]
- Shh-induced Smo accumulation in cilia [1]: prevent Shh-induced Smo accumulation in cilia

Compound: CC(C)CCC[C@@](C)(O)[C@H]1CC[C@H]2[C@@H]3CC=C4C[C@@H](O)CC[C@]4(C)[C@H]3CC[C@@]21C [20(R)-OHC]
- inhibition of binding of mSmo CRD-Fc to 20(S)-OHC beads (mSmo CRD-Fc): unable to inhibit binding; also recorded: failed to inhibit
- activation of Hh signaling ([2]; ref Nachtergaele et al., 2012): cannot activate Hh signaling

Compound: CC(C)CCN[C@@H](C)[C@H]1CC[C@H]2[C@@H]3CC=C4C[C@@H](O)CC[C@]4(C)[C@H]3CC[C@]12C [22-azacholesterol]
- block of signaling induced by SAG or by mSmoM2 ([2]; ref Nedelcu et al., 2013): does not block signaling induced by SAG or by mSmoM2

Compound: CC(C)CCCC(=O)[C@H]1CC[C@H]2[C@@H]3CC=C4C[C@@H](O)CC[C@]4(C)[C@H]3CC[C@]12C [20-keto-cholesterol]
- inhibition of binding of mSmo CRD-Fc to 20(S)-OHC beads (mSmo CRD-Fc): failed to inhibit

Compound: C#CCC[C@](C)(O)[C@H]1CC[C@H]2[C@@H]3CC=C4C[C@@H](O)CC[C@]4(C)[C@H]3CC[C@@]21C [20(S)-yne]
- inhibition of binding of mSmo CRD-Fc to 20(S)-OHC beads (mSmo CRD-Fc): Binding could be inhibited
- potency relative to 20(S)-OHC ([2]; Hh-activation potency, ref Nachtergaele et al., 2012): ~10 fold

- inhibition of binding of mSmo CRD-Fc to 20(S)-OHC beads (mSmo CRD-Fc): failed to inhibit the binding
Compound: CCC(C)n1ncn(-c2ccc(N3CCN(c4ccc(OCC5COC(Cn6cncn6)(c6ccc(Cl)cc6Cl)O5)cc4)CC3)cc2)c1=O (stereo not shown) [Itraconazole]

- inhibition of binding of mSmo CRD-Fc to 20(S)-OHC beads (mSmo CRD-Fc): unable to inhibit binding
Compound: CC(C)CC[C@H](O)[C@@H](C)[C@H]1CC[C@H]2[C@@H]3CC=C4C[C@@H](O)CC[C@]4(C)[C@H]3CC[C@]12C [22(S)-OHC]
- activation of Hh signaling ([2]; ref Nachtergaele et al., 2012): cannot activate Hh signaling

- inhibition of binding of mSmo CRD-Fc to 20(S)-OHC beads (mSmo CRD-Fc): failed to inhibit the binding
- activation of Hh target gene Gli1 (YFP-mSmo): could activate a Hh target gene, Gli1
- response of ΔCRD-YFP-mSmo to agonist (Hh target genes, Gli3R) (ΔCRD-YFP-mSmo): retained its ability to respond to SAG
Compound: CNC1CCC(N(Cc2cccc(-c3ccncc3)c2)C(=O)c2sc3ccccc3c2Cl)CC1 (stereo not shown) [SAG]
- Gli3R level (YFP-mSmo): loss of the repressor form of Gli3 (Gli3R) was observed

Compound: CC(C)C(=O)OCC(=O)[C@@]12O[C@H](C3CCCCC3)O[C@@H]1C[C@H]1[C@@H]3CCC4=CC(=O)C=C[C@]4(C)[C@H]3[C@@H](O)C[C@@]12C [Ciclesonide]
- competition with cyclopamine for binding to Smo (Smo): fail to compete with cyclopamine for binding to Smo

Compound: (3β, 17β)-17-[(2R)-2-hydroxy-hex-4-yn-2-yl]-androst-5-en-3-ol [20(R)-yne]
- inhibition of binding of mSmo CRD-Fc to 20(S)-OHC beads (mSmo CRD-Fc): blocked the binding
- activation of Hh signaling [3]: weak activators of signaling
- signaling by mSmo D477H (mSmo D477H): reduced signaling
- signaling by mSmoM2 (mSmoM2): reduced signaling
- competition of bodipy-cyclopamine binding (full-length mSmo): did not affect the binding

Compound: C#CCCC(=O)[C@H]1CC[C@H]2[C@@H]3CC=C4C[C@@H](O)CC[C@]4(C)[C@H]3CC[C@]12C [20-keto-yne, (3β, 17β)-17-(1-oxopent-4-yn-1-yl)-androst-5-en-3-ol]
- inhibition of binding of mSmo CRD-Fc to 20(S)-OHC beads (mSmo CRD-Fc): blocked the binding
- activation of Hh signaling [3]: weak activators of signaling
- signaling by mSmo D477H (mSmo D477H): reduced signaling
- signaling by mSmoM2 (mSmoM2): reduced signaling
- competition of bodipy-cyclopamine binding (full-length mSmo): did not affect the binding

- inhibition of binding of mSmo CRD-Fc to 20(S)-OHC beads (mSmo CRD-Fc): unable to inhibit binding
Compound: CC(C)CCC[C@@](C)(O)[C@@H]1CC[C@@H]2[C@H]3CC=C4C[C@H](O)CC[C@@]4(C)[C@@H]3CC[C@]21C [ent-20(S)-OHC]
- activation of Hh signaling ([2]; ref Nachtergaele et al., 2012): cannot activate Hh signaling

Compound: CCCC1O[C@@H]2C[C@H]3[C@@H]4CCC5=CC(=O)C=C[C@]5(C)[C@H]4[C@@H](O)C[C@]3(C)[C@]2(C(=O)CO)O1 (stereo partly shown) [Budesonide]
- competition with cyclopamine for binding to Smo (Smo): fail to compete with cyclopamine for binding to Smo

Compound: CS(=O)(=O)c1ccc(C(=O)Nc2ccc(Cl)c(-c3ccccn3)c2)c(Cl)c1 [Vismodegib]
- Shh-induced Smo accumulation in cilia [1]: prevent Shh-induced Smo accumulation in cilia
